Laboratory results reported in patent publication US9458165B2, “DOT1L inhibitors” (Dana-Farber Cancer Institute, Inc., priority 2014, dated 2016).

How the values were obtained:
Format in all cases: cell-based
[1] = test system: MV4:11 cell line; experiment: Anti-proliferation study; conditions: compared to CC001, FIG. 7
[2] = test system: HL60; experiment: Cellular activity in HL60 cell line (FIG. 10B); conditions: compared to EPZ4777, FIG. 10B
[3] = test system: the related gene; experiment: Gene expression assay; conditions: compared to CC001 and EPZ4777, FIG. 6
[4] = test system: H3K27Me3 mark; experiment: Western blot assay; conditions: compared to EPZ004777 and CC001, FIG. 5

CC(C)N(C[C@H]1C[C@@H](n2cc(C#N)c3c(N)ncnc32)[C@H](O)[C@@H]1O)C1CC(CCc2nc3ccc(C(C)(C)C)cc3[nH]2)C1 (stereo partly drawn) [Example 1, 4-amino-7-((1R,2S,3R,4R)-4-(((3-(2-(6-(tert-butyl)-1H-benzo[d]imidazol-2-yl)ethyl)cyclobutyl)(isopropyl)amino)methyl)-2,3-dihydroxycyclopentyl)-7H-pyrrolo[2,3-d]pyrimidine-5-carbonitrile]
anti-proliferation activity [1]: greater than known DOT1L inhibitor CC001
cellular activity on HL60 [2]: but not on HL60
down regulation of the related gene [3]: down regulates the related gene more efficiently than known DOT1L inhibitor CC001 and very similar to EPZ4777
reduction of H3K27 trimethylation [4]: can reduce the H3K27 trimethylation at much lower dose compared to known DOT1L inhibitors EPZ004777 (structure shown below) and CC001
